Assay results from patent publication US11925649B2, “Treatments for diabetic neuropathy” (University of Manitoba, priority 2010, dated 2024).

Tests used:
[1] = system: sensory neurons from DRG of Sprague Dawley rat; assay: Total neurite outgrowth at low concentrations of M1R antagonists (immunostaining); format: cell-based; settings: 24 hr culture
Procedure: Sensory neurons from cervical, thoracic and lumbar DRG of an adult 3-4 month old male Sprague Dawley rat were isolated and dissociated using the method described in Example 1, and then were cultured for 24 h in serum-free and insulin-free F12 medium in the presence of modified N2 additives. […] Neurite outgrowth was then assessed after a culture period of 24 hr.
Total neurite lengths (i.e., the sum of the length of all neurites produced by an individual neuron) were assessed using an immunostaining method. […] Four images were captured per well and the replicate well frequency was set to n=6. The neuronal marker β-tubulin III (Sigma-Aldrich Canada Ltd.) was applied to formalin fixed cells. The marker was tagged with the fluorescent conjugate Alexa Fluor 488 (Invitrogen Canada Ltd.). Fluorescent images were collected using an Olympus IX71 inverted microscope with a 20×/0.45 PH1 [sequence] objective that was suitable for resolving images on plastic surfaces. […] Captured image fluorescence was thereafter converted to a grayscale 8-bit image to quantify total pixel volume. […] Total pixel volume of the neuron specific cell bodies and neurites were quantified. […] The net pixel volume was normalized against the number of neuronal cells per quantified field.

[2] = system: STZ diabetic C57Bl6J mice; assay: Prophylactic topical hydrogel application in STZ diabetic mice; format: in vivo, mouse
Procedure: Male C57Bl6J mice were made diabetic with 2 injections of 90 mg/kg STZ on consecutive days, and then separated into three groups. There were also two groups control (non-diabetic) mice. The first group of control (non-diabetic) mice received daily topical treatment with 50 μl Intrasite® hydrogel (Intrasite is a registered trademark of T. J. Smith and Nephew, Hull, England) to both hind paws, with a controlled exposure time of 20 minutes. […] The third group of mice were diabetic mice that received daily topical treatment with 50 μl hydrogel to both hind paws.
Two months after the second STZ injection, the function of the small sensory neurons in all five groups of mice were determined by measuring hind paw thermal response latency following the procedure described in Example 7.
The structural integrity of small sensory neurons was assessed by measuring IENF profiles in hind paw plantar skin as described in Example 7.
A suitable gel is exemplified by Intrasite® sterile hydrogel prod. no. 66027313 (Smith & Nephew Inc, St. Laurent, PQ, CA).

COX IV = COX IV expression in DRG of STZ-diabetic mice (Western blot); format: in vivo, mouse; settings: daily injections for 8 weeks
Procedure: (§1) Quantitative Western blotting was performed as described in Example 15. Quantitative Western blotting was performed as previously disclosed by Chowdhury et al (2010) and Fernyhough et al. (1999). DRG homogenates of 5-10 μg of protein were resolved on a 10% SDS-PAGE gel and electroblotted onto nitrocellulose membrane. Blots were then blocked in 5% nonfat milk containing 0.05% Tween-20, rinsed in PBS (pH 7.4) and incubated with the following antibodies: monoclonal anti-cytochrome c oxidase subunit 4 (COX IV; 1:1000, Mitosciences, Eugene, OR, US), monoclonal anti-NADH dehydrogenase (ubiquinone) iron-sulfur protein 3 (NDUFS3, 1:1000, Mitosciences, Eugene, OR, US). Extracellular signal-regulated kinase (T-ERK; 1:2000, Covance, Princeton, NJ, US) was probed as a loading control. The blots were rinsed, incubated in Western blotting Luminol Reagent (Santa Cruz Biotechnology Inc., Santa Cruz, CA, US) and imaged using a BioRad Fluor-S image analyzer (BioRad, Hercules, CA, US).

[3] = system: AMP-activated protein kinase (AMPK); assay: AMPK expression in DRG of STZ-diabetic mice (Western blot); format: in vivo, mouse; settings: daily s.c. injections for 8 weeks, lumbar DRG
Procedure: (§2) Lumbar DRG were isolated and rinsed in ice-cold solution containing STE buffer (250 mmol/l sucrose, 10 mmol/l Tris-HCl, 1 mmol/l EDTA, pH 7.4), and then homogenized with a polytron homogenizer ([…] GmbH, Switzerland) using 3×7.5 s grinding pulses at 30 s intervals according to the method taught by Chowdhury et al. (2010, Diabetes 59: 1082-1091).
(§3) Quantitative Western blotting was performed as previously disclosed by Chowdhury et al (2010) and Fernyhough et al. (1999, Diabetes 48: 881-889). DRG homogenates of 5-10 μg of protein were resolved on a 10% SDS-PAGE gel and electroblotted onto nitrocellulose membrane. Blots were then blocked in 5% nonfat milk containing 0.05% Tween-20, rinsed in PBS (pH 7.4) and incubated with the following antibodies: polyclonal anti-phospho AMPK (1:1000, Cell Signaling Technology, Danvers, MA, US), polyclonal anti-PGC-1α (1:1000, Santa Cruz Biotechnology Inc, Santa Cruz, CA, USA) and monoclonal anti-ATP synthase β subunit (1:2000 dilution, Mitosciences, Eugene, OR). Extracellular signal-regulated kinase (ERK; 1:2000, Covance, Princeton, NJ, US) was probed as a loading control (previous studies show this protein to not change level of expression in DRG in diabetes). […]

NDUFS3 = NDUFS3 expression in DRG of STZ-diabetic mice (Western blot); format: in vivo, mouse; settings: daily injections for 8 weeks
Procedure: as §1

[4] = system: STZ-diabetic Sprague Dawley rats; assay: Prevention of tactile allodynia and sensory nerve conduction slowing in diabetic rats; format: in vivo, rat
Procedure: Two groups of adult female Sprague Dawley rats were made diabetic with a single intraperitoneal injection of 55 mg/kg STZ. […] A third group of adult male rats was maintained as non-diabetic controls. The three groups of rats were monitored for the onset of diabetic painful neuropathy by measuring paw tactile response thresholds at weeks 5 and 9 of diabetes, as taught by Calcutt (1996, Pain: 68:293-299). […] Sensory nerve conduction velocity (SNCV) was measured in the same cohorts of rats after 8 weeks of diabetes by measuring under isoflurane anesthesia, the latency of H waves in the electromyogram of interosseous muscles following electrical stimulation of the sciatic nerve at the sciatic notch and Achilles tendon and then measuring the distance between the two points of nerve stimulation, as taught by Calcutt (J. Clin. Invest. 111:507-514, 2003).

[5] = system: STZ-induced diabetic C57Bl6J mice; assay: Reappearance of neuropathy after withdrawal of treatment; format: in vivo, mouse
Description: Only 9 weeks later (the 17-wk time point) was there a significant reappearance of hypoalgesia in the previously treated STZ-induced diabetic mice (FIG. 12).

PGC-1α = PGC-1α expression in DRG of STZ-diabetic mice (Western blot); format: in vivo, mouse; settings: daily s.c. injections for 8 weeks, lumbar DRG
Procedure: as §2, §3

[6] = control (non-diabetic) mice, 10% hydrogel, treated hindpaw
[7] = diabetic mice, 2% or 10% hydrogel, vs control mice

CN1CCN(CC(=O)N2c3ccccc3C(=O)Nc3cccnc32)CC1 [pirenzepine, 11-[2-(4-methylpiperazin-1-yl)acetyl]-5H-pyrido[2,3-b][1,4]benzodiazepin-6-1]
concentration that significantly increased total neurite outgrowth [1]: ≥ 0.003 µM
IENF per mm of skin [2, 6]: numerically, but statistically insignificant, increases
SNP per mm of skin [2, 6]: numerically, but statistically insignificant, increases
thermal response latency ([2]; control (non-diabetic) mice, daily topical hydrogel comprising 10% pirenzepine): not affected
levels of IENF in treated paw [2, 7]: no significant changes
levels of SNP in treated paw [2, 7]: no significant changes
thermal response latency in treated paw ([2]; diabetic mice, daily topical 2% or 10% hydrogel, vs control mice): did not demonstrate any significant changes
expression of COX IV mitochondrial protein (COX IV): restored the expression
expression of P-AMPK [3]: restored the expression
expression of T-AMPK [3]: restored the expression
expression of NDUFS3 mitochondrial protein (NDUFS3): restored the expression
paw tactile response thresholds ([4]; 10 mg/kg daily s.c., after 5 weeks of diabetes): significantly higher than vehicle treated diabetic rats
sensory nerve conduction velocity (SNCV) ([4]; 10 mg/kg daily s.c., after 8 weeks of diabetes): partially prevented this deficit
paw tactile response thresholds ([4]; 10 mg/kg daily s.c., week 9 of diabetes): not different from control rats
paw tactile allodynia ([4]; daily s.c., after 5 or 9 weeks of treatment): prevents paw tactile allodynia
thermal hypoalgesia ([5]; 10 mg/kg daily s.c., after 8 weeks): hypoalgesia was prevented
time after stopping treatment to significant reappearance of hypoalgesia ([5]; treatment stopped at 8 weeks, 17-wk time point): 9 weeks
expression of PGC-1α (PGC-1α): restored the expression
